Values after ≈ are worked out from the molar mass of the structure shown.
How the values were obtained:
[1] = system: αvβ3 integrin positive melanoma cells M21; experiment: Cell attachment on vitronectin coated surface; type: cell-based; details: 2 ng/μl, 1 h
Procedure: FIG. 8: Cell attachment on vitronectin coated surface. 2 ng/μl of free DI17E6 or the different nanoparticulate formulations were incubated together with the αvβ3 integrin positive melanoma cells M21 on vitronectin coated ELISA plates (concentrations are calculated referred to DI17E6 or equivalent NP amounts). After 1 h of incubation non-adherent cells were removed. Remaining attached cells were stained with CyQUANT GR and counted against untreated control as described in the manufacturer's instructions manual. (Internal control of each experiment n=10, one representative experiment out of 3 independent experiments is shown.)
αvβ3 integrin positive melanoma cells M21 were grown on vitronectin (MoBiTec, Göttingen, Germany) coated ELISA plates (Nunc, Wiesbaden, Germany). Therefore, ELISA 96-well plates were coated with 1 μg/ml vitronectin for 1 h at 37° C. Plates were blocked with 1% heat inactivated BSA (PAA, Cölbe, Germany) and incubated with either 2 ng/μl of free DI17E6 or the different nanoparticulate formulations (referred to free mAb) together with the cells in cell adhesion medium (RPMI 1640 with 2 mM L-glutamine supplemented with 1% BSA). […] Remaining attached cells were stained with CyQUANT GR (Invitrogen, Karlsruhe) and counted against untreated control in a microtiter ELISA reader as described in the manufacturer instructions manual.

[2] = system: αvβ3 integrin positive melanoma cells M21; experiment: Cell detachment from vitronectin coated surface; type: cell-based; details: 4 ng/μl, 4 h at 37° C.
Procedure: FIG. 9: Cell detachment from vitronectin coated surface. For cell detachment assay, 96-well ELISA plates were coated with vitronectin and cells were allowed to attach and spread for 1 h. Then, 4 ng/μl of free DI17E6 or the different unloaded or doxorubicin nanoparticulate formulations were added and the plates were incubated for additional 4 h at 37° C. to induce detachment (concentrations are calculated referred to DI17E6 or equivalent NP amounts). Detached cells were removed and remaining attached cells were stained with CyQUANT GR and counted against untreated control as described in the manufacturer's instructions manual. (Internal control of each experiment n=10, one representative experiment out of 9 independent experiments is shown.)
For cell detachment assays, 96-well ELISA plates were coated with vitronectin as described above. After blocking, cells were allowed to attach and spread for 1 h in cell adhesion medium. Then, 4 ng/μl or 10 ng/μl of either free DI17E6 or the different nanoparticulate formulations (referred to free mAb) were added and the plates were incubated for additional 4 h at 37° C. to induce detachment. Subsequently, plates were washed and processed as for cell adhesion assay. Specific inhibition of attachment or induction of detachment were determined relative to vitronectin-coated surfaces blocked with BSA.

αv-negative M21L cells = experiment: MTT cell viability assay; details: for IC-50 M21L: MTT, reduce cell viability by 50%, M21L cells
Procedure: (§5) Cell viability was assessed using the 3-(4,5-dimethylthiazol-2-yl)-2,5-diphenyltetrazolium bromide (MTT) dye reduction assay [27] modified as described before [28].

[3] = system: αvβ3-positive M21 melanoma cells; experiment: MTT cell viability assay; details: for IC-50 M21: MTT, reduce cell viability by 50%, M21 cells
Procedure: as §5

[4] = target: alpha-v beta-3 integrin on M21 melanoma cells (UniProt P06756); experiment: cell-based or functional assay
Sequence of alpha-v beta-3 integrin on M21 melanoma cells (P06756 31-1048, chain 1 of 2): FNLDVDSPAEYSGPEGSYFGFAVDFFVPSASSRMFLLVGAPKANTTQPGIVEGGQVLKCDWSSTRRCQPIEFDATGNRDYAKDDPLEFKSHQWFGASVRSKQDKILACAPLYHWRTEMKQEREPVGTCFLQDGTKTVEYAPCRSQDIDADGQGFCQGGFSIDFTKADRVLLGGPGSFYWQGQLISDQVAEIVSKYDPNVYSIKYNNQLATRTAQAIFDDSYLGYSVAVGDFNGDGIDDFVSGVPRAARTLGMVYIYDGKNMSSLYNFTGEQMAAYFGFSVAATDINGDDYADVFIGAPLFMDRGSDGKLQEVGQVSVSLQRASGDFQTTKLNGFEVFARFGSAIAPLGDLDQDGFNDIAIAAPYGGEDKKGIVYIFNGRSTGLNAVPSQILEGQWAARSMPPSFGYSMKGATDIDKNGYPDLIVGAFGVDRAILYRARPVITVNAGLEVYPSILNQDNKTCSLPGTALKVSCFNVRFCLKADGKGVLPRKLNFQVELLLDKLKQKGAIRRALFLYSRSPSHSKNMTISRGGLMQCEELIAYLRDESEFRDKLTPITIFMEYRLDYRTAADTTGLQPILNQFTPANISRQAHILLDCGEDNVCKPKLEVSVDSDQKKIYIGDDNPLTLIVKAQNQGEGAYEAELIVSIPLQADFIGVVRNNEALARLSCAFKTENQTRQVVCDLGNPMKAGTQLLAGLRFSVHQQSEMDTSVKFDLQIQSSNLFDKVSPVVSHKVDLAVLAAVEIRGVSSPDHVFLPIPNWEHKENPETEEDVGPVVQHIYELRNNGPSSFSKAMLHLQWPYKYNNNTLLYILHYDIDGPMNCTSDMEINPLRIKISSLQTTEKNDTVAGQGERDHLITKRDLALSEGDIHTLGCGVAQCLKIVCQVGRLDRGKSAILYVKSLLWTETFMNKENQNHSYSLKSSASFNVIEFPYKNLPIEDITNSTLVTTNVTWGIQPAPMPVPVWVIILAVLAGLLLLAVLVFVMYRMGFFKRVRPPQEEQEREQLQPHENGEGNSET
Sequence of alpha-v beta-3 integrin on M21 melanoma cells (P05106 27-788, chain 2 of 2, further chain): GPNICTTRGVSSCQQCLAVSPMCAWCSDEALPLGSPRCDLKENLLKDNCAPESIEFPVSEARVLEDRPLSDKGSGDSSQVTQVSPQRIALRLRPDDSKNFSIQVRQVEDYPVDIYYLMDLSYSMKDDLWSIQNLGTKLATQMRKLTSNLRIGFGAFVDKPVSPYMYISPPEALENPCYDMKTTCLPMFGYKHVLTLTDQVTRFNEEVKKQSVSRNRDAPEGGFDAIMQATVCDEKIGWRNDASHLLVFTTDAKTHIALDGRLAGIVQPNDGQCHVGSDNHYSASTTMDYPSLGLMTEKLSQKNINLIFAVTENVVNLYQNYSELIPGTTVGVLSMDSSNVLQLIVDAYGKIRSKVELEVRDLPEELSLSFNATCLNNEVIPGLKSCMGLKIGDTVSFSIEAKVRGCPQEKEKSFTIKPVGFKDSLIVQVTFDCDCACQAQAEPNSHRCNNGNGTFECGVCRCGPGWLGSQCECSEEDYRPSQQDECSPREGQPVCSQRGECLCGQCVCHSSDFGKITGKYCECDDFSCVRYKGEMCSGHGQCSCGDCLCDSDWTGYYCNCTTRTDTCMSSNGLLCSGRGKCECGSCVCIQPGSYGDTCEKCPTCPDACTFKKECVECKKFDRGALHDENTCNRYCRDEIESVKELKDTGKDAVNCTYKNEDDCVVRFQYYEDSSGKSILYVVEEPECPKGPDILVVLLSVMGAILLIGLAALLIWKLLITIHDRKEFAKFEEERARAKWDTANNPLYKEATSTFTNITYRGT

[5] = system: αvβ3 positive melanoma cells M21 on vitronectin; experiment: Kinetic of cell detachment, transmitted light time lapse microscopy; type: cell-based; details: total incubation time 1-2 d
Procedure: A parallel detachment kinetic study of the different nanoparticulate formulations or free doxorubicin confirms the cell detachment assay. In this study detachment is observed by transmitted light time lapse microscopy over a period of 1-2 d. Pictures were done every 7 minutes. The detachment time of the cells is measured.
For the determination of cell detachment kinetics, cells were seeded in a vitronectin coated multiwell chamber and incubated with the different nanoparticulate formulations or free doxorubicin in a humidified, CO2-aerated climate chamber at 37° C. Detachment was observed by transmitted light time lapse microscopy over a period of 1-2 d. Pictures were done every 7 minutes. The detachment of the cells was analyzed by manual evaluation of the data.

M21 cells = experiment: Cellular uptake and intracellular distribution, confocal laser scanning microscopy; type: cell-based; details: 10 ng/μl, 4 h at 37° C., CLSM
Procedure: Cellular uptake and intracellular distribution: The cellular uptake and intracellular distribution of these nanoparticulate formulations are shown by confocal laser scanning microscopy (CLSM). αvβ3 integrin-positive M21 melanoma cells are incubated with NP-Dox-DI17E6, with NP-Dox-IgG, or free Doxorubicin (FIG. 5). […] The overlay of the different fluorescence channels (FIG. 6B-D) verifies the intracellular uptake of NP-Dox-DI17E6 (FIG. 6A).
FIG. 5: Cellular uptake and intracellular distribution of nanoparticles studied by confocal laser scanning microscopy (CLSM). M21 cells were cultured on glass slides and treated with 10 ng/μl of the different nanoparticle formulations (referred to DI17E6 concentration or equivalent amount of control nanoparticles) for 4 h at 37° C. The green autofluorescence of the nanoparticles was used for detection and the red autofluorescence of doxorubicin. The cell membranes were stained with Concanavalin A AlexaFluor 350 (blue). Pictures were taken within inner sections of the cells. […]
Cellular uptake and intracellular distribution of the nanoparticles were studied by confocal laser scanning microscopy. […] (concentrations are calculated referred to DI17E6 or equivalent NP amounts as described in 2.5). […] Nanoparticles were detected at 488/520 nm. Doxorubicin was detected by red fluorescence at 488/590 nm.

[6] = Antibody bound to nanoparticle surface (SEC of supernatant); type: physicochemical
Procedure: For the thiolation step of the antibodies, DI17E6 or IgG were dissolved in phosphate buffer pH 8.0 at a concentration of 1.0 mg/ml. For the introduction of thiol groups DI17E6 or IgG, respectively, were incubated with a 50 fold molar excess of 2-iminothiolane solution (c=1.14 mg/ml; 40.2 μl) for 2 h as previously described by Steinhauser et al. (2006). The antibodies were purified by size exclusion chromatography (SEC, D-Salt™ Dextran Desalting column). The resulting solutions contained thiolated antibody (DI17E6 or IgG, respectively) at a concentration of about 500 μg/ml. For the coupling reaction 1.0 ml of the sulfhydryl-reactive nanoparticle suspension was incubated with 1.0 ml of the thiolated DI17E6 or IgG, respectively, to achieve a covalent linkage between antibody and the nanoparticle system. For the preparation of samples with adsorptively attached antibody, 1.0 ml of the mPEG5000-SPA modified nanoparticles were incubated with 1.0 ml of thiolated DI17E6 or IgG, respectively. […] To determine unbound antibody the resulting supernatants were collected and analyzed by size exclusion chromatography (SEC) as described above. The amount of antibody bound to the nanoparticle surface was calculated as difference between the amount of antibody obtained after thiolation and purification and the amount of antibody determined in the supernatant obtained after the conjugation step.

[7] = system: αvβ3 integrin positive melanoma cells M21; experiment: Cellular binding of nanoparticulate formulations, flow cytometry (FACS); type: cell-based; details: 2 ng/μl, 4 h at 37° C.
Procedure: (§1) Cellular binding: αvβ3 integrin-positive melanoma cells M21 and αv-negative melanoma cells M21L are incubated with DI17E6-coupled nanoparticles (NP-DI17E6) or nanoparticles coupled to an unspecific control mAb IgG (NP-IgG). […] Both nanoparticle preparations show low binding to M21L cells (FIG. 4D).
(§2) FIG. 4: Cellular binding of unloaded and doxorubicin loaded nanoparticulate formulations. αvβ3 integrin positive melanoma cells M21 (A and C) and αv-defective melanoma cells M21L (B and D) were treated with 2 ng/μl of the different unloaded (A and B) or doxorubicin loaded (C and D) nanoparticulate formulations for 4 h at 37° C. (concentrations are calculated referred to DI17E6 or equivalent NP amounts). Flow cytometry (FACS) analysis was performed to quantify their cellular binding. The data is shown as histogram of the FL1-H-channel (autofluorescence of the nanoparticles). Green: NP-DI17E6 and NP-Dox-DI17E6 respectively, red: NP-IgG and NP-Dox-IgG respectively, blue: untreated control. […]
(§3) M21 or M21L cells were cultured in 24-well plates (Greiner, Frickenhausen, Germany) and treated with the different nanoparticle formulations for 4 h at 37° C. […] Control nanoparticles without DI17E6 modification were used in equivalent nanoparticle quantities. […] Nanoparticles could be detected at 488/520 nm.

[8] = system: αv-defective melanoma cells M21L; experiment: as above; type: cell-based; details: 2 ng/μl, 4 h at 37° C.
Procedure: as §1, §2, §3

[9] = Doxorubicin loading (HPLC of non-entrapped drug); type: physicochemical; details: mean ± SD, n = 3
Procedure: (5) Preparation of doxorubicin-loaded nanoparticles 160 mg HSA were dissolved in 4 ml purified water and the solution was filtered through a 0.22 μm cellulose acetate membrane filter (Schleicher & Schuell, Dassel, Germany). An aliquot (500 μl) of this solution was added to 200 μl of a 0.5% (w/v) aqueous stock solution of doxorubicin. To this mixture, 300 μl of purified water were added. In order to adsorb doxorubicin to human serum albumin in solution, the mixture was incubated under stirring (550 rpm) for 2 h at room temperature. For the preparation of nanoparticles by desolvation, 3 ml ethanol (96%, v/v) were added continuously (1 ml/min) with a tubing pump (Ismatec IPN, Glattbrugg, Switzerland). After protein desolvation, an aliquot of 11.75 μl 8% glutaraldehyde solution was added to induce particle crosslinking (corresponding to 100% stoichiometric protein crosslinking). […] The nanoparticle content was determined by gravimetry. […] The content of entrapped doxorubicin was calculated from the difference between total doxorubicin and unbound drug. For the quantification of doxorubicin, a Merck Hitachi D7000 HPLC system equipped with a LiChroCART® 250-4 LiChrospher®-100 RP-18 column (Merck, Darmstadt, Germany) was used. […] Doxorubicin was quantified by UV (250 nm) and fluorescence detection (excitation 560 nm, emission 650 nm).

[10] = Particle diameter and polydispersity by photon correlation spectroscopy; type: physicochemical; details: mean ± SD; n = 3; 100% crosslinking
Procedure: (§4) Nanoparticles were analyzed with regard to particle diameter and polydispersity by photon correlation spectroscopy (PCS) using a Malvern Zetasizer 3000HSA (Malvern Instruments Ltd., Malvern, UK). The zetapotential was measured with the same instrument by Laser Doppler microelectrophoresis. Prior to both measurements the samples were diluted with filtered (0.22 μm) purified water. Particle content was determined by microgravimetry. For this purpose 50.0 μl of the nanoparticle suspension was pipetted into an aluminium weighing dish and dried for 2 h at 80° C. After 30 min of storage in an exsiccator the samples were weighed on a micro balance (Sartorius, Germany).

[11] = Particle content by microgravimetry; type: physicochemical; details: mean ± SD; n = 3; 100% crosslinking
Procedure: as §4

[12] = Zetapotential by Laser Doppler microelectrophoresis; type: physicochemical; details: mean ± SD; n = 3; 100% crosslinking
Procedure: as §4

Molecule: free DI17E6: deimmunized version of monoclonal mouse antibody 17E6, directed against αv integrins (SEQ ID No. 1 and 2)
- Inhibition of cell attachment to vitronectin coated surfaces [1]: inhibits the attachment of the M21 cells to vitronectin coated surfaces
- Cell detachment from vitronectin coated surfaces [2]: cell detachment of αvβ3 positive melanoma cells M21 from vitronectin coated surfaces is also possible
- IC-50 M21L (αv-negative M21L cells): >100 ng/mL
- IC-50 M21 [3]: >100 ng/mL

Molecule: NP-Dox-DI17E6 (doxorubicin-loaded HSA nanoparticles with DI17E6 covalently coupled on the surface)
- IC-50 of MTT cell viability assay on M21 cells (referred to doxorubicin) [4]: 8 ng/mL

Molecule: COc1cccc2c1C(=O)c1c(O)c3c(c(O)c1C2=O)C[C@@](O)(C(=O)CO)C[C@@H]3O[C@H]1C[C@H](N)[C@H](O)[C@H](C)O1 [free doxorubicin, doxorubicin, reference compound]
- Cell death [h after incubation] [5]: 17 h
- Cellular uptake and intracellular distribution (M21 cells): Red doxorubicin fluorescence can be detected
- IC50 (αv-negative M21L cells; read-out: IC-50 M21L): 0.0707 ± 0.0008 µg/mL (≈ 0.13 µM)
- IC50 ([3]; Homo sapiens, M21, read-out: IC-50 M21): 0.0575 ± 0.0037 µg/mL (≈ 0.106 µM)

Molecule: NP-Dox-DI17E6
- Covalent linkage of antibody to the particle surface ([6]; covalent linkage): 11-20 μg antibody/mg nanoparticle
- Antibody binding efficiency ([6]; mean ± SD, n = 3, antibody per mg nanoparticle): 15.84 ± 4.07 µg/mg
- Cellular binding to M21 cells [7]: high binding
- Cellular binding to M21L cells [8]: low binding
- Cellular uptake and intracellular distribution (M21 cells): reaches the inner part of the cells
- Drug loading [9]: 56.7 ± 2.9 µg/mg
- Particle diameter [10]: 404.9 ± 27.0 nm
- Polydispersity [10]: 0.040 ± 0.045
- Cell detachment from vitronectin coated surfaces [2]: same detachment efficiency
- Particle content [11]: 14.4 ± 1.2 mg/mL
- Zetapotential [12]: −40.3 ± 3.1 mV
- IC-50 M21L (αv-negative M21L cells): >100 ng/mL
- IC-50 M21 [3]: 8.0 ± 0.2 ng/mL

Source: US20120263739A1, “ANTI INTEGRIN ANTIBODIES LINKED TO NANOPARTICLES LOADED WITH CHEMOTHERAPEUTIC AGENTS” (MERCK PATENT GMBH, priority 2009, published 2012)
